Data reported in patent US20250009819A1, “NOVEL PROBIOTICS AND USE THEREOF” (PBLBIOLAB CO., LTD., priority 2021, published 2025).

Experiments:
Neuropeptide Y (NPY) = Neuropeptide Y (NPY) expression in PC12 phaeochromocytoma cells; assay type: cell-based; settings: LPS 200 ng/ml; lactic acid bacteria 1×10^4 CFU/ml; 24 hr
Method: (§1) PC12 cells obtained from the Korean Cell Line Bank were cultured in DMEM medium supplemented with 10% FBS and 1% antibiotics, and dispensed at 1×10^6 cells per well in a 12-well plate. Then, LPS (200 ng/ml) was added to each well along with lactic acid bacteria (1×10^4 CFU/ml) and incubated for 24 hr. The cells and supernatants were collected, sonicated and centrifuged, and the amount of NPY in the supernatant was measured by ELISA kit.

Clostridium difficile = Clostridium difficile proliferation in gut microbiota (PCR); assay type: cell-based; settings: human feces culture; lactic acid bacteria 1×10^6 CFU/mL; anaerobic 24 hr
Method: Fresh human feces were suspended in anaerobic medium (GAM, Nissui Pharmaceutical Co., Ltd., Japan) and allowed to stand for 10 min. The supernatant was diluted with 10,000-fold anaerobic medium, 0.05 mL of the dilution was transplanted into 5 mL of freshly made anaerobic medium, and lactic acid bacteria (1×10^6 CFU/mL) were implanted and incubated anaerobically for 24 hr. This culture medium was divided into two, one was centrifuged (5000 rpm, 20 minutes), the precipitated DNA was isolated using the QIAamp DNA stool mini kit (Qiagen, Germany), and Clostridium difficile (primer: forward, 5′-[…]-3′ (SEQ ID NO: 4); reverse, 5′-[…]-3′ (SEQ ID NO: 5) was quantified by PCR. The reaction product was first treated at 95° C. for 30 seconds, followed by 42 cycles of 5 seconds at 95° C. and 30 seconds at 72° C. for analysis. In addition, one culture medium was sonicated, centrifuged, and filter-sterilized, and the amount of LPS in the supernatant was measured using an ELISA kit.

TNF-α = TNF-α expression in LPS-treated macrophages (ELISA); assay type: cell-based, C57BL/6 mice; settings: macrophages treated with lactic acid bacteria and LPS for 24 hours
Method: (§2) C57BL/6 mice (male, 6 weeks old, 20-23 g) were subjected to an intraperitoneal injection of 2 ml of sterile 4% thioglycolate solution, and after 96 hours, the mice were anesthetized and injected with 8 ml of RPMI 1640 medium through the peritoneal cavity. Then, after 5-10 minutes, the RPMI medium (macrophages) in the mouse peritoneal cavity was extracted, centrifuged at 1000 g for 10 minutes, and washed again with RPMI 1640 medium twice. Macrophages were seeded in 24-well plates at a count of 0.5×10^6 in each well, and treated with lactic acid bacteria and LPS, an inflammatory response-inducing substance, for 24 hours. TNF-α and IL-10 cytokine expression amount in the culture supernatant was then measured by ELISA Kit.

IL-10 = IL-10 expression in LPS-treated macrophages (ELISA); assay type: cell-based, C57BL/6 mice; settings: macrophages treated with lactic acid bacteria and LPS for 24 hours
Method: as §2

BDNF = BDNF expression in SH-SY5Y cells; assay type: cell-based; settings: LPS 200 ng/ml; lactic acid bacteria 1×10^4 CFU/ml; 24 h
Method: as §1, with “SH-SY5Y” for “PC12”, “2×10^6” for “1×10^6”, “h.” for “hr.”, “BDNF” for “NPY”

gut microbiota = assay: LPS production in gut microbiota (ELISA); assay type: cell-based; settings: human feces culture; lactic acid bacteria 1×10^6 CFU/mL; anaerobic 24 hr
Method: Fresh human feces were suspended in anaerobic medium (GAM, Nissui Pharmaceutical Co., Ltd., Japan) and allowed to stand for 10 min. The supernatant was diluted with 10,000-fold anaerobic medium, 0.05 mL of the dilution was transplanted into 5 mL of freshly made anaerobic medium, and lactic acid bacteria (1×10^6 CFU/mL) were implanted and incubated anaerobically for 24 hr.

[1] = Antioxidant activity (DPPH, in vitro); assay type: biochemical; settings: DPPH 0.2 mM; lactic acid bacteria suspension 1×10^8 CFU/ml; 37° C. 20 min
Method: DPPH (2,2-Diphenyl-1-picrylhydrazyl) was dissolved in ethanol to a concentration of 0.2 mM to prepare DPPH solution. Lactic acid bacteria suspension (1×10^8 CFU/ml) or vitamin C solution (1 g/ml) was added to 0.1 ml of the above DPPH solution and incubated at 37° C. for 20 min. The culture was centrifuged at 3000 rpm for 5 min to obtain a supernatant. The absorbance of the supernatant was then measured at 517 nm and the antioxidant activity of the lactic acid bacteria was calculated.

Substance | PC12 cell Induction of NPY expression (Neuropeptide Y (NPY)) | Gut microbiota Inhibition of difficile bacteria proliferation (Clostridium difficile) | Macrophage Inhibition of TNF-α expression (TNF-α) | Macrophage Induction of IL-10 expression (IL-10) | SHSY5Y cell Induction of BDNF expression (BDNF) | Gut microbiota Inhibition of LPS production (gut microbiota) | Antioxidant activity [1]
Lactobacillus johnsonii NK202 | + (weakly (+; >20-60%)) | + (weakly (+; >20-60%)) | + (weakly (+; >20-60%)) | + (weakly (+; >20-60%)) | + (weakly (+; >20-60%)) | + (weakly (+; >20-60%)) | + (weakly (+; >20-60%))
Lactobacillus johnsonii NK203 | − (not or less than 20% (−; <20%)) | − (not or less than 20% (−; <20%)) | + (weakly (+; >20-60%)) | + (weakly (+; >20-60%)) | − (not or less than 20% (−; <20%)) | − (not or less than 20% (−; <20%)) | + (weakly (+; >20-60%))
Lactobacillus mucosae NK204 | − (not or less than 20% (−; <20%)) | + (weakly (+; >20-60%)) | − (not or less than 20% (−; <20%)) | − (not or less than 20% (−; <20%)) | − (not or less than 20% (−; <20%)) | − (not or less than 20% (−; <20%)) | + (weakly (+; >20-60%))
Lactobacillus mucosae NK205 | + (weakly (+; >20-60%)) | − (not or less than 20% (−; <20%)) | − (not or less than 20% (−; <20%)) | − (not or less than 20% (−; <20%)) | − (not or less than 20% (−; <20%)) | − (not or less than 20% (−; <20%)) | + (weakly (+; >20-60%))
Lactobacillus paracasei NK189 | − (not or less than 20% (−; <20%)) | + (weakly (+; >20-60%)) | + (weakly (+; >20-60%)) | − (not or less than 20% (−; <20%)) | − (not or less than 20% (−; <20%)) | + (weakly (+; >20-60%)) | + (weakly (+; >20-60%))
Lactobacillus plantarum NK181 | + (weakly (+; >20-60%)) | + (weakly (+; >20-60%)) | + (weakly (+; >20-60%)) | − (not or less than 20% (−; <20%)) | − (not or less than 20% (−; <20%)) | − (not or less than 20% (−; <20%)) | + (weakly (+; >20-60%))
Lactobacillus plantarum NK182 | − (not or less than 20% (−; <20%)) | ++ (strongly (++; >60-90%)) | − (not or less than 20% (−; <20%)) | − (not or less than 20% (−; <20%)) | − (not or less than 20% (−; <20%)) | − (not or less than 20% (−; <20%)) | ++ (strongly (++; >60-90%))
Lactobacillus plantarum NK183 | − (not or less than 20% (−; <20%)) | + (weakly (+; >20-60%)) | + (weakly (+; >20-60%)) | − (not or less than 20% (−; <20%)) | − (not or less than 20% (−; <20%)) | + (weakly (+; >20-60%)) | + (weakly (+; >20-60%))
Lactobacillus plantarum NK184 | − (not or less than 20% (−; <20%)) | + (weakly (+; >20-60%)) | + (weakly (+; >20-60%)) | + (weakly (+; >20-60%)) | − (not or less than 20% (−; <20%)) | + (weakly (+; >20-60%)) | ++ (strongly (++; >60-90%))
Lactobacillus reuteri NK200 | + (weakly (+; >20-60%)) | + (weakly (+; >20-60%)) | − (not or less than 20% (−; <20%)) | − (not or less than 20% (−; <20%)) | + (weakly (+; >20-60%)) | + (weakly (+; >20-60%)) | + (weakly (+; >20-60%))
Lactobacillus reuteri NK201 | + (weakly (+; >20-60%)) | + (weakly (+; >20-60%)) | + (weakly (+; >20-60%)) | + (weakly (+; >20-60%)) | + (weakly (+; >20-60%)) | + (weakly (+; >20-60%)) | + (weakly (+; >20-60%))
Lactobacillus rhamnosus NK211 | − (not or less than 20% (−; <20%)) | + (weakly (+; >20-60%)) | + (weakly (+; >20-60%)) | + (weakly (+; >20-60%)) | − (not or less than 20% (−; <20%)) | − (not or less than 20% (−; <20%)) | + (weakly (+; >20-60%))
Lactobacillus rhamnosus NK212 | − (not or less than 20% (−; <20%)) | − (not or less than 20% (−; <20%)) | − (not or less than 20% (−; <20%)) | − (not or less than 20% (−; <20%)) | − (not or less than 20% (−; <20%)) | + (weakly (+; >20-60%)) | ++ (strongly (++; >60-90%))
Lactobacillus sakei NK197 | + (weakly (+; >20-60%)) | + (weakly (+; >20-60%)) | + (weakly (+; >20-60%)) | + (weakly (+; >20-60%)) | − (not or less than 20% (−; <20%)) | + (weakly (+; >20-60%)) | ++ (strongly (++; >60-90%))
Lactobacillus sakei NK198 | + (weakly (+; >20-60%)) | − (not or less than 20% (−; <20%)) | − (not or less than 20% (−; <20%)) | − (not or less than 20% (−; <20%)) | − (not or less than 20% (−; <20%)) | ++ (strongly (++; >60-90%)) | ++ (strongly (++; >60-90%))
